Measured values published in patent US11406622B2, “Glaucocalyxin a derivative, pharmaceutically acceptable salt thereof, or pharmaceutical composition thereof and uses thereof in preparation of drugs for treating psoriasis” (SUZHOU PHARMAVAN CO., LTD., priority 2017, dated 2022).
Read-outs that look alike come from different tables or passages of the source.

Experiments:
[1] = system: HaCaT keratinocytes; test: Time- and dose-dependent inhibition of proliferation of human keratinocytes, CCK-8 (Example 6); type: cell-based
Experimental: In this example, the glaucocalyxin A derivatives of the present application and pharmaceutically acceptable salts thereof were examined for the relationship between the inhibitory rate thereof on the proliferation of human keratinocytes and its concentration. Compound 23 as shown in Table 1 was used as an exemplary compound to be examined by using the following procedure.
A cell suspension was prepared and inoculated into three 96-well plates at 8000 cells in a volume of 150 μl per well, which were then cultured overnight in an incubator at 37° C., 5% CO2. On the next day, 50 μl of test compound solution at different concentrations was added to each well. Triplicate wells were set up for each concentration. A vehicle control group (without compound), a cell control group (without compound and without vehicle), and a blank medium control group (without cells, a well for null adjustment) were also set up, and cultured for additional 24, 48, and 72 hours. CCK-8 staining working solution was added at 110 μL per well, and cultured for additional 1-4 h. At the end of the culture, the absorbances were measured at 450 nm (OD450 nm) on a Bio-Tek enzyme-linked immunosorbent assay. The results were expressed as the mean OD450 nm value of the triplicates±standard deviation (x±sd). Prism Graph was used for plotting and analysis. The cell inhibitory rate of each group was calculated according to the mean value of the treatment group with each compound at each concentration and the mean value of the vehicle control group, that is, the cell inhibitory rate (%)=[1−(the mean value of the treatment group−the blank control group)/(the mean value of the vehicle control group−the blank control group)]×100%. A fitting curve was obtained by plotting the cell inhibitory rate of each group against the logarithmic concentration (Log C) of the test compound, and then the IC50 value was determined.

[2] = system: human keratinocytes (HaCaT); test: Effect on proliferation of human keratinocytes, CCK-8, 48 h (Example 5); type: cell-based; conditions: 48 hours of treatment
Experimental: In this example, the glaucocalyxin A derivatives of the present application, or pharmaceutically acceptable salts thereof, were examined for the effect on the proliferation of human keratinocytes. In this example, the glaucocalyxin A derivatives as shown in Table 1 were examined by using the following procedure. A cell suspension was prepared and inoculated into three 96-well plates at 8000 cells in a volume of 150 μl per well, which were then cultured overnight in an incubator at 37° C., 5% CO2. On the next day, 50 μl of test compound solution at different concentrations was added to each well. Triplicate wells were set up for each concentration. A vehicle control group (without compound), a cell control group (without compound and vehicle), and a blank medium control group (without cells, a well for null adjustment) were also set up, and cultured for an additional 48 hours. CCK-8 staining working solution was added at 110 μL per well, and cultured for additional 1-4 h. At the end of the culture, the absorbances were measured at 450 nm (OD450 nm) on a Bio-Tek enzyme-linked immunosorbent assay. The results were expressed as the mean OD450 nm value of triplicates±standard deviation (x±sd). The Origin 7.0 was used for plotting and analysis. A fitting curve was obtained by plotting the OD value of each group against the logarithmic concentration of the test compound, and then the IC50 value was determined.

[3] = system: xylene-induced auricular swelling in mice; test: Xylene-induced auricular swelling in mice (Example 7); type: in vivo, mouse; conditions: 7 consecutive days, xylene on 8th day
Experimental: In this example, the glaucocalyxin A derivatives and pharmaceutically acceptable salts thereof were detected for the inhibitory effect thereof on xylene-induced auricular swelling in mice. Compound 23 was used as an exemplary compound, and the detection method was as follows.
20 mice were randomly divided into 4 groups with 5 mice in each group, which were blank control group, 30 mg/kg dexamethasone treatment group, Compound 23 (10 mg/kg) treatment group, and Compound 23 (50 mg/kg) treatment group, respectively. 0.25-0.3 mL depending on the body weight was intragastrically administrated for 7 consecutive days, and an equal volume of 5% glucose injection was administrated to the blank group. On the 8th day, xylene was used to produce a model of auricular swelling in the right auricle of mice. 15 μl of xylene, an inflammatory inducer, was applied to both sides of the right auricle of each mouse, and the left auricle was left un-treated as a normal auricle control. After 1 hour, the mice were sacrificed by cervical dislocation. Both auricles were cut off along the auricle baseline, and then punched at the same position by using a puncher with a diameter of 8 mm to give auricle pieces, which were then weighed on an electronic analytical balance. The auricular swelling rate and the auricular swelling inhibitory rate were calculated according to the following formula. […]

Compound: Br.C=C1C(=O)C23C(O)CC4C(C)(C)c5nc(N(C)C)sc5CC4(C)C2CCC1C3O (stereo not drawn) [Compound 23]
- IC50 ([1]; 24 h, read-out: IC50 at 24 h): 1.94 µM
- IC50 ([1]; 48 h, read-out: IC50 at 48 h): 0.933 µM
- IC50 ([1]; 72 h, read-out: IC50 at 72 h): 0.787 µM
- IC50 [2]: 0.93 µM
- inhibition of auricular swelling ([3]; 10 mg/kg intragastric): effective
- inhibition of auricular swelling ([3]; 50 mg/kg intragastric): effective
